Laboratory results as given in patent US20170329062A1, “OPTICAL FILM AND FLEXIBLE DEVICE USING THE OPTICAL FILM” (SUMITOMO CHEMICAL COMPANY, LIMITED, priority 2016, published 2017).

Legend:
[1] = Molar extinction coefficient of ultraviolet absorbent in 20 mg/L toluene solution; type: physicochemical
Protocol: (manufactured by JASCO Corporation) Measured Concentration: 20 mg/L Solvent: toluene

[2] = Solubility of ultraviolet absorbent in N,N-dimethylacetamide at 25° C.; type: physicochemical

CC(C)(C)CC(C)(C)c1cc(Cc2cc(C(C)(C)CC(C)(C)C)cc(-n3nc4ccccc4n3)c2O)c(O)c(-n2nc3ccccc3n2)c1 [LA31, 2,2′-methylenebis[6-(2H-benzotriazole-2-yl)-4-(1,1,3,3-tetramethylbutyl)phenol]]
Molar extinction coefficient 360 nm [1]: 27,300 L/mol · cm
Molar extinction coefficient 370 nm [1]: 19,800 L/mol · cm
Molar extinction coefficient 380 nm [1]: 9,000 L/mol · cm
Molar extinction coefficient 390 nm [1]: 1,400 L/mol · cm
Molar extinction coefficient 400 nm [1]: <50 L/mol/cm
Molar extinction coefficient 420 nm [1]: <50 L/mol/cm
Solubility at 25° C. with respect to DMAc [2]: >10 g/100 g-DMAc

CCCCC(CC)C(=O)OCCOc1ccc(-c2nc(-c3ccccc3)nc(-c3ccccc3)n2)c(O)c1 (stereo not shown) [LA46, 2-(4,6-diphenyl-1,3,5-triazine-2-yl)-5-[2-(2-ethylhexanoyloxy)ethoxy]phenol]
Molar extinction coefficient 360 nm [1]: 10000 L/mol/cm
Molar extinction coefficient 370 nm [1]: 3,000 L/mol · cm
Molar extinction coefficient 380 nm [1]: 160 L/mol/cm
Molar extinction coefficient 390 nm [1]: <50 L/mol/cm
Molar extinction coefficient 400 nm [1]: <30 L/mol/cm
Molar extinction coefficient 420 nm [1]: <30 L/mol/cm
Solubility at 25° C. with respect to DMAc [2]: >10 g/100 g-DMAc

CC(C)(C)CC(C)(C)c1ccc(O)c(-n2nc3ccccc3n2)c1 [Sumisorb 340, 2-(2-hydroxy-5-tert-octylphenyl)benzotriazole]
Molar extinction coefficient 360 nm [1]: 13,100 L/mol · cm
Molar extinction coefficient 370 nm [1]: 7,700 L/mol · cm
Molar extinction coefficient 380 nm [1]: 2,200 L/mol · cm
Molar extinction coefficient 390 nm [1]: 320 L/mol/cm
Molar extinction coefficient 400 nm [1]: <50 L/mol/cm
Molar extinction coefficient 420 nm [1]: <50 L/mol/cm
Solubility at 25° C. with respect to DMAc [2]: >10 g/100 g-DMAc

CCC(C)(C)c1cc(-n2nc3ccccc3n2)c(O)c(C(C)(C)CC)c1 [Sumisorb 350, 2-(2-hydroxy-3,5-di-tert-pentylphenyl)benzotriazole]
Molar extinction coefficient 360 nm [1]: 13,900 L/mol · cm
Molar extinction coefficient 370 nm [1]: 9,700 L/mol · cm
Molar extinction coefficient 380 nm [1]: 4,800 L/mol · cm
Molar extinction coefficient 390 nm [1]: 1,200 L/mol · cm
Molar extinction coefficient 400 nm [1]: 210 L/mol/cm
Molar extinction coefficient 420 nm [1]: <50 L/mol/cm
Solubility at 25° C. with respect to DMAc [2]: >10 g/100 g-DMAc
